Tests used:
Assay type in all cases: in vivo, rat
[1] = tested on: retina of diabetic rats; test: Histologic examination of retina in diabetic rats
Procedure: (§1) Diabetes was induced with streptozotocin [(STZ), 55 mg/kg] by intraperitoneal injection in male Long-Evans rats. Three weeks after STZ injection, rats were divided into four groups, namely, untreated normal controls, normal rats receiving CrHis (110 μg/kg/day); untreated diabetics and diabetics treated with CrHis (110 μg/kg/day) orally for 12 weeks.
After the eye extirpation, tissue (retina) of each rat was also examined grossly. The tissue was removed for histologic study, washed with normal saline, and immersion-fixed in 10% buffered formalin immediately upon removal. They were gradually dehydrated, embedded in paraffin, cut into 5-μm sections, and stained with hematoxylin and eosin for histologic examination according to standard procedures.
General procedures were conducted as described above. Retinas were highly organized in the normal (control) rats, with intact layers. The retinas were disorganized in the diabetic rats with impaired layers. […] Similar experiments are conducted with other chromium species such as chromium nicotinate and chromium picolinate.

[2] = tested on: retinal lipid oxidation; test: Retinal lipid oxidation by LC-MS of retinal lysate (Example 3); conditions: versus other chromium complexes at equivalent total dosages of chromium
Procedure: (§2) General procedures are conducted as described above. Retinal lipids are extracted from the retinal cellular lysate and characterized by liquid chromatography-mass spectrometry.

[3] = tested on: glucose transporter 1 (GLUT 1); test: Western blot of retina GLUT 1 expression in diabetic rats; conditions: diabetic rats treated with CrHis, P<0.05, FIG. 1 Panel A
Procedure: as §1
(§3) After rats were sacrificed, both eyes were either (1) enucleated and frozen at −80° C. for the measurements of the target biomarker(s) and/or other analysis or (2) are examined immediately post-sacrifice for morphological changes. […]
(§4) Equal amounts of protein (50 μg) were electrophoresed and subsequently transferred onto a nitrocellulosemembrane (Schleicher and Schuell Inc., Keene, N.H., USA). […] Bands were analyzed densitometrically using an image analysis system (Image J; National Institute of Health, Bethesda, USA).
(§5) General procedures were conducted as described above. […] The retina MDA content was measured by high performance liquid chromatography (HPLC, Shimadzu, Tokyo, Japan) using a Shimadzu UV-vis SPD-10 AVP detector and a CTO-10 AS VP column in a mobile phase consisting of 30 mM KH2PO4 and methanol (82.5+17.5, v/v; pH 3.6) at a flow rate of 1.2 ml/min. Column effluents were monitored at 250 nm and the volume was 20 μl. […]
(§6) Data are means of quadruplets of assays and expressed as relative to control (%). […]

[4] = tested on: diabetic retinopathy; test: Co-administration of chromium histidinate with insulin or metformin in diabetic retinopathy (Example 10)
Procedure: General procedures are conducted as described above. Co-administration of chromium histidinate with insulin or metformin is performed. Retinal biomarker(s) are extracted from the retinal cellular lysate and characterized by liquid chromatography-mass spectrometry.

[5] = tested on: retinal microangiopathy; test: Retinal microangiopathy (Example 8); conditions: versus other chromium complexes at equivalent total dosages of chromium
Procedure: General procedures are conducted as described above. Retinal microangiopathy is characterized using standard ophthalomogic techniques.

[6] = tested on: retinal photoreceptors; test: Free radical oxidation of retinal photoreceptors (Example 4); conditions: versus other chromium complexes at equivalent total dosages of chromium
Procedure: as §2

[7] = tested on: glucose transporter 3 (GLUT3); test: Western blot of retina GLUT3 expression in diabetic rats; conditions: diabetic rats treated with CrHis, P<0.05, FIG. 1 Panel B
Procedure: as §1, §3, §4, §5, §6

[8] = tested on: diabetic rats; test: CrHis supplementation in STZ-induced diabetic rats: body weight and blood/serum biochemical parameters
Procedure: as §1
(§7) Twenty eight Long Evans rats per experiment, aged 8 weeks with 250±20 g of body weight were used in these experiments. All the animals were kept and maintained under standard guidelines. The animals were kept and maintained at 22±2° C., humidity of 55%±5% and 12/12-hour light/dark cycle. The rats were weighed every week and at the end of the study. Blood sample was collected from the tail vein of each rat for the measurement of biochemical efficacy and safety markers.
(§8) The CrHis was given in the water and administered at a concentration of 110 μg/kg bw/d) to get 9.16 μg elemental Cr (kg body/d), which is an equivalent dose of 614 μg Cr for a 70-kg adult human based on previous work. The Cr concentration of the water provided the control group was negligible (<1 μg/L). The water provided the Cr-supplemented group was initially prepared as a solution containing 3000 μg CrHis/L of water. The […] water was diluted to achieve the target Cr intake per group on the basis of measured water intake. To induce experimental diabetes, STZ was dissolved in citrate buffer (pH 4.5) and injected once intraperitoneally at a dose of 55 mg/kg to the remainder of the animals. A control group was given citrate buffer via intraperitoneal injection.
(§9) Fourteen rats were treated with STZ (55 mg/kg body weight) through intraperitoneal injection. All rats were then fasted for 16 hour prior to treatment, but they had access to drinking water. The animals were divided into 4 groups: group I (Control) rats received citrate buffer intraperitoneally and isotonic saline, orally; group II (Control+CrHis) rats were administered chromium histidinate orally (110 μg/kg body weight) daily for a period of […]; group III (Diabetic) rats received single injection of STZ (55 mg/kg body weight) intraperitoneally and were also given isotonic saline, orally for the duration of the study; group IV (Diabetic+CrHis) diabetic rats were administered chromium orally as chromium histidinate (110 μg/kg body weight) daily for a period of 12 weeks after the induction of diabetes.
(§10) Body weight and blood glucose concentrations were monitored weekly. Blood was collected from the tail vein of the rats. Blood glucose was determined by one touch glucometer (ACCU-Check Active, Roche Diagnostics, Mannheim, Germany) after the injection for 72 h. Before STZ injection, glucose concentrations of study rats and controls were measured and compared.
(§11) Blood samples were centrifuged at 3000×g for 10 min and sera were separated. Serum glucose concentrations were measured by using ACCU-Chek Active (Roche Diagnostics, Basel, Switzerland). Serum insulin levels were measured with the Rat Insulin Kit (Linco Research, St Charles, Mo.) by enzyme-linked immunosorbent assay (ELISA, Elx-800, BioTek Instruments, Winooski, Vt.). Serum concentrations of total cholesterol (TC) were measured by diagnostic kits (Sigma Diagnostics, St Louis, Mo.). Blood glycosylated haemoglobin (HbAlc) was also measured by routine kit (Alfabiotech, Milano, Italy) using the autoanalyzer.
Data were analyzed statistically using one-way ANOVA. In the analyses for the biomarker(s), the repeated statement was added in the general linear model. The group differences were attained by the Fisher's multiple comparison test [Statistical Package for the Social Sciences (SPSS)]. A P value of less than 0.05 was considered significant.

[9] = tested on: retina insulin; test: Western blot of retina insulin expression in diabetic rats; conditions: diabetic rats treated with CrHis, P<0.05, FIG. 1 Panel C
Procedure: as §1, §3, §4, §5, §6

[10] = tested on: retinal lipoprotein membrane content; test: Loss of retinal lipoprotein membrane content (Example 6); conditions: versus other chromium complexes at equivalent total dosages of chromium
Procedure: as §2

[11] = tested on: retinal capillary basement membrane; test: Retinal capillary basement membrane thickening (Example 7); conditions: versus other chromium complexes at equivalent total dosages of chromium
Procedure: General procedures are conducted as described above. Retinal capillary basement membrane thickening is characterized by physical examination of the eye using standard techniques.

[12] = tested on: hemoglobin glycation and/or retinal protein glycation; test: Hemoglobin glycation and retinal protein glycation (Example 5); conditions: versus other chromium complexes at equivalent total dosages of chromium
Procedure: General procedures are conducted as described above. […]. Retinal proteins are extracted from the retinal cellular lysate and characterized by liquid chromatography-mass spectrometry and/or Western Blotting.

[13] = tested on: normal rats; test: CrHis supplementation in normal rats: body weight and blood/serum biochemical parameters; conditions: CrHis group, CrHis 110 μg/kg/day orally
Procedure: as §1, §7, §8, §9, §10, §11
Data were analyzed statistically using one-way ANOVA. […]

[14] = tested on: retinal hard exudates; test: Retinal hard exudates (Example 9); conditions: versus other chromium complexes at equivalent total dosages of chromium
Procedure: General procedures are conducted as described above. Retinal hard exudates are extracted from the retinal cellular lysate and characterized by liquid chromatography-mass spectrometry.

[15] = tested on: retina malondialdehyde (MDA); test: Retina MDA content by HPLC in diabetic rats; conditions: diabetic rats treated with CrHis, FIG. 1 Panel D
Procedure: as §1
General procedures were conducted as described above. After rats were sacrificed, both eyes were enucleated and frozen at −80° C. for the measurements of MDA, GLUT 1, GLUT3 and insulin. The retina MDA content was measured by high performance liquid chromatography (HPLC, Shimadzu, Tokyo, Japan) using a Shimadzu UV-vis SPD-10 AVP detector and a CTO-10 AS VP column in a mobile phase consisting of 30 mM KH2PO4 and methanol (82.5+17.5, v/v; pH 3.6) at a flow rate of 1.2 ml/min. Column effluents were monitored at 250 nm and the volume was 20 μl. The retina homogenate (10%, w/v) was prepared in 10 mM phosphate buffer (pH 7.4), centrifuged at 13,000×g for 10 min at 4° C., and the supernatant was collected and stored at −80° C. for MDA analysis.

[16] = STZ + CrHis group, diabetic rats, CrHis 110 μg/kg/day orally for 12 weeks
[17] = diabetic retinopathy rats treated with CrHis

How did the “Retina organization (histology)” value ([1]; CrHis group compared to the diabetes group) turn out when chromium histidinate [CrHis] was run?
Its value is “surprisingly improved”.

What about the “Reducing the physiological effects of diabetic retinopathy” value ([1]; versus other chromium complexes at equivalent total dosages of chromium) of the same substance?
Its value is “more efficacious”.

What about the “Reducing the retinal lipid oxidation” value [2] of the same substance?
Its value is “more efficacious”.

What about the “Expression of GLUT1 in the retina” value [3] of the same substance?
The value was “reversed these changes to near control levels”.

And the “Effect in treating diabetic retinopathy” value [4]?
Its value is “synergistic effect”.

And the Decreasing microangiopathy [5]?
Its Decreasing microangiopathy is “more efficacious”.

What about the “Reducing the free radical oxidation of retinal photoreceptors” value [6] of the same substance?
The value was “more efficacious”.

And the “Expression of GLUT3 in the retina” value [7]?
The value was “reversed these changes to near control levels”.

And the “Body weight, change in words” value ([8]; CrHis-treated diabetic rats compared to the untreated diabetic group, P<0.001)?
Its value is “significantly increased”.

What about the Body weight [8, 16] of the same substance?
The Body weight was 250 g.

What about the Glucose [8, 16] of the same substance?
Its Glucose is 290 mg/dL.

What about the Glycosylated hemoglobin [8, 16] of the same substance?
Its Glycosylated hemoglobin is 0.45 mg/g.

And the Insulin [8, 16]?
Its Insulin is 25.0 μU/mL.

And the Total cholesterol [8, 16]?
The Total cholesterol was 218 mg/dL.

And the “Blood glucose level, change in words” value [8, 17]?
Its value is “significant increases”.

What about the “HbAlc level, change in words” value [8, 17] of the same substance?
Its value is “significant increases”.

What about the “Insulin level, change in words” value [8, 17] of the same substance?
Its value is “significant increases”.

And the “Expression of insulin in the retina” value [9]?
Its value is “reversed these changes to near control levels”.

And the “Decreasing the loss of retinal lipoprotein membrane content” value [10]?
Its value is “more efficacious”.

And the “Preventing retinal capillary basement membrane from thickening” value [11]?
Its value is “more efficacious”.

What about the “Reducing hemoglobin glycation and/or retinal protein glycation” value [12] of the same substance?
The value was “more efficacious”.

And the Body weight [13]?
Its Body weight is 340 g.

And the Glucose [13]?
The Glucose was 100 mg/dL.

And the Glycosylated hemoglobin [13]?
The Glycosylated hemoglobin was 0.20 mg/g.

And the Insulin [13]?
Its Insulin is 50.3 μU/mL.

What about the Total cholesterol [13] of the same substance?
Its Total cholesterol is 80 mg/dL.

And the Reducing hard exudates [14]?
The Reducing hard exudates was “more efficacious”.

And the “MDA expression in retina” value [15]?
The value was “statistically significant reduction”.
